Measured values published in patent US20220125051A1, “PRE-HARVEST DESICCATION METHOD” (SYNGENTA CROP PROTECTION AG, priority 2019, published 2022).
Where two headings read alike, the source gives them in different places.

Tests used:
Type in all cases: in vivo
[1] = test system: Amaranthus palmeri (AMAPA); test: Post-emergence efficacy, Method A; settings: Amaranthus palmeri, post-emergence, 312 h, evaluated after 13 days
Procedure, shortened: (§1)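 Plants grown 14 days in glasshouse (24/16 °C, 14 h light, 65% humidity) were sprayed with compound formulated in IF50. The spray was diluted in 0.25% or 1% Empicol ESC70 plus 1% ammonium sulphate. Damage was scored 13 days later on a 0-100 scale, where 100 is total damage.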

[2] = test system: Chenopodium album (CHEAL); test: Post-emergence efficacy, Method A; settings: Chenopodium album, post-emergence, 312 h, evaluated after 13 days
Procedure, shortened: as §1

[3] = test system: Digitaria sanguinalis (DIGSA); test: Post-emergence efficacy, Method A; settings: Digitaria sanguinalis, post-emergence, 312 h, evaluated after 13 days
Procedure, shortened: as §1

[4] = test system: Echinochloa crus-galli (ECHCG); test: Post-emergence efficacy, Method A; settings: Echinochloa crus-galli, post-emergence, 312 h, evaluated after 13 days
Procedure, shortened: as §1

Eleusine indica (ELEIN) [5] = test: Post-emergence efficacy, Method A; settings: Eleusine indica, post-emergence, 312 h, evaluated after 13 days
Procedure, shortened: as §1

[6] = test system: Euphorbia heterophylla (EPHHL); test: Post-emergence efficacy, Method A; settings: Euphorbia heterophylla, post-emergence, 312 h, evaluated after 13 days
Procedure, shortened: as §1

[7] = test system: Ipomoea hederacea (IPOHE); test: Post-emergence efficacy, Method A; settings: Ipomoea hederacea, post-emergence, 312 h, evaluated after 13 days
Procedure, shortened: as §1

Lolium perenne (LOLPE) [8] = test: Post-emergence efficacy, Method A; settings: Lolium perenne, post-emergence, 312 h, evaluated after 13 days
Procedure, shortened: as §1

Setaria faberi (SETFA) [9] = test: Post-emergence efficacy, Method A; settings: Setaria faberi, post-emergence, 312 h, evaluated after 13 days
Procedure, shortened: as §1

[10] = test system: Amaranthus retroflexus (AMARE); test: Post-emergence efficacy, Method B; settings: Method B, 100=total damage to plant, 0=no damage, read-out: Control of weed species after post-emergence application, AMARE
Procedure: (§2) An “instant formulation”, known as the IF50, containing 50 g/L of the “technical” (i.e. unformulated) active ingredient was prepared by dissolving the active ingredient in a mixture of organic solvents and emulsifier, details of which are provided in the table. This IF50 was then mixed with a small, variable amount of acetone to aid dissolution, before addition of an aqueous solution of 1% v/v ammonium sulphate+1% v/v Empicol ESC70 (Sodium lauryl ether sulphate) adjuvant, as the aqueous diluent, to form an aqueous spray solution which contains a predetermined concentration of the active ingredient (which varies depending on the application rate of the active ingredient to the plants).
(§3) This aqueous spray solution was then sprayed onto the plants, after about 12 days' cultivation. The plants were grown from seeds sown in standard soil, placed in a glasshouse under controlled conditions (at 24/18° C. or 20/16° C., day/night; 16 hours light; 65% humidity). After spray application the plants were then grown on in a glasshouse under the same conditions and watered twice daily. […] the test was evaluated (100=total damage to plant; 0=no damage to plant).
(§4) Ipomoea hederacea (IPOHE), Euphorbia heterophylla (EPHHL), Chenopodium album (CHEAL), Amaranthus retroflexus (AMARE), Lolium perenne (LOLPE), Digitaria sanguinalis (DIGSA), Eleusine indica (ELEIN), Echinochloa crus-galli (ECHCG), Setaria faberi (SETFA)

[11] = test system: Chenopodium album (CHEAL); test: Post-emergence efficacy, Method B; settings: Method B, 100=total damage to plant, 0=no damage, read-out: Control of weed species after post-emergence application, CHEAL
Procedure: as §2, §3, §4

[12] = test system: Digitaria sanguinalis (DIGSA); test: Post-emergence efficacy, Method B; settings: Method B, 100=total damage to plant, 0=no damage, read-out: Control of weed species after post-emergence application, DIGSA
Procedure: as §2, §3, §4

[13] = test system: Echinochloa crus-galli (ECHCG); test: Post-emergence efficacy, Method B; settings: Method B, 100=total damage to plant, 0=no damage, read-out: Control of weed species after post-emergence application, ECHCG
Procedure: as §2, §3, §4

Eleusine indica (ELEIN) [14] = test: Post-emergence efficacy, Method B; settings: Method B, 100=total damage to plant, 0=no damage, read-out: Control of weed species after post-emergence application, ELEIN
Procedure: as §2, §3, §4

[15] = test system: Euphorbia heterophylla (EPHHL); test: Post-emergence efficacy, Method B; settings: Method B, 100=total damage to plant, 0=no damage, read-out: Control of weed species after post-emergence application, EPHHL
Procedure: as §2, §3, §4

[16] = test system: Ipomoea hederacea (IPOHE); test: Post-emergence efficacy, Method B; settings: Method B, 100=total damage to plant, 0=no damage, read-out: Control of weed species after post-emergence application, IPOHE
Procedure: as §2, §3, §4

Lolium perenne (LOLPE) [17] = test: Post-emergence efficacy, Method B; settings: Method B, 100=total damage to plant, 0=no damage, read-out: Control of weed species after post-emergence application, LOLPE
Procedure: as §2, §3, §4

Setaria faberi (SETFA) [18] = test: Post-emergence efficacy, Method B; settings: Method B, 100=total damage to plant, 0=no damage, read-out: Control of weed species after post-emergence application, SETFA
Procedure: as §2, §3, §4

In the case of `O=S(=O)([O-])CC[n+]1ccc(-c2ccncn2)cn1` [Compound A4], the pest or weed control at 500 g/ha ([1]; Application rate 500 g/Ha, 100=total damage to plant, 0=no damage to plant, read-out: Control of weed species after post-emergence application, AMAPA) is reported as 100%, the pest or weed control at 500 g/ha ([2]; Application rate 500 g/Ha, 100=total damage to plant, 0=no damage to plant, read-out: Control of weed species after post-emergence application, CHEAL) is reported as 80% and the pest or weed control at 500 g/ha ([3]; Application rate 500 g/Ha, 100=total damage to plant, 0=no damage to plant, read-out: Control of weed species after post-emergence application, DIGSA) is reported as 80%. The pest or weed control at 500 g/ha ([4]; Application rate 500 g/Ha, 100=total damage to plant, 0=no damage to plant, read-out: Control of weed species after post-emergence application, ECHCG) was 60%, the pest or weed control at 500 g/ha (Eleusine indica (ELEIN) [5]; Application rate 500 g/Ha, 100=total damage to plant, 0=no damage to plant, read-out: Control of weed species after post-emergence application, ELEIN) was 100% and the pest or weed control at 500 g/ha ([6]; Application rate 500 g/Ha, 100=total damage to plant, 0=no damage to plant, read-out: Control of weed species after post-emergence application, EPHHL) was 100%. It also gave a pest or weed control at 500 g/ha ([7]; Application rate 500 g/Ha, 100=total damage to plant, 0=no damage to plant, read-out: Control of weed species after post-emergence application, IPOHE) of 90%, a pest or weed control at 500 g/ha (Lolium perenne (LOLPE) [8]; Application rate 500 g/Ha, 100=total damage to plant, 0=no damage to plant, read-out: Control of weed species after post-emergence application, LOLPE) of 100% and a pest or weed control at 500 g/ha (Setaria faberi (SETFA) [9]; Application rate 500 g/Ha, 100=total damage to plant, 0=no damage to plant, read-out: Control of weed species after post-emergence application, SETFA) of 60%. The pest or weed control at 500 g/ha ([10]; 500 g/Ha) was 100%, the pest or weed control at 500 g/ha ([11]; 500 g/Ha) was 80% and the pest or weed control at 500 g/ha ([12]; 500 g/Ha) was 100%. The pest or weed control at 500 g/ha ([13]; 500 g/Ha) was 70%, the pest or weed control at 500 g/ha (Eleusine indica (ELEIN) [14]; 500 g/Ha) was 80% and the pest or weed control at 500 g/ha ([15]; 500 g/Ha) was 100%. It also gave a pest or weed control at 500 g/ha ([16]; 500 g/Ha) of 100%, a pest or weed control at 500 g/ha (Lolium perenne (LOLPE) [17]; 500 g/Ha) of 90% and a pest or weed control at 500 g/ha (Setaria faberi (SETFA) [18]; 500 g/Ha) of 40%.
`O=C([O-])CCC[n+]1ccc(-c2ncccn2)cn1` [Compound A220] was tested, and the pest or weed control at 500 g/ha ([1]; Application Rate 500 g/Ha, Method A, read-out: Control of weed species after post-emergence application, AMAPA (100=total damage to plant; 0=no damage to plant)) was 100%, the pest or weed control at 500 g/ha ([2]; Application Rate 500 g/Ha, Method A, read-out: Control of weed species after post-emergence application, CHEAL (100=total damage to plant; 0=no damage to plant)) was 100% and the pest or weed control at 500 g/ha ([3]; Application Rate 500 g/Ha, Method A, read-out: Control of weed species after post-emergence application, DIGSA (100=total damage to plant; 0=no damage to plant)) was 90%. The pest or weed control at 500 g/ha ([4]; Application Rate 500 g/Ha, Method A, read-out: Control of weed species after post-emergence application, ECHCG (100=total damage to plant; 0=no damage to plant)) was 40%, the pest or weed control at 500 g/ha (Eleusine indica (ELEIN) [5]; Application Rate 500 g/Ha, Method A, read-out: Control of weed species after post-emergence application, ELEIN (100=total damage to plant; 0=no damage to plant)) was 20% and the pest or weed control at 500 g/ha ([6]; Application Rate 500 g/Ha, Method A, read-out: Control of weed species after post-emergence application, EPHHL (100=total damage to plant; 0=no damage to plant)) was 90%. For the same compound, the pest or weed control at 500 g/ha ([7]; Application Rate 500 g/Ha, Method A, read-out: Control of weed species after post-emergence application, IPOHE (100=total damage to plant; 0=no damage to plant)) was 80%, the pest or weed control at 500 g/ha (Lolium perenne (LOLPE) [8]; Application Rate 500 g/Ha, Method A, read-out: Control of weed species after post-emergence application, LOLPE (100=total damage to plant; 0=no damage to plant)) was 60% and the pest or weed control at 500 g/ha (Setaria faberi (SETFA) [9]; Application Rate 500 g/Ha, Method A, read-out: Control of weed species after post-emergence application, SETFA (100=total damage to plant; 0=no damage to plant)) was 60%. It also gave a pest or weed control at 1000 g/ha ([10]; 1000 g/Ha) of 100%, a pest or weed control at 1000 g/ha ([11]; 1000 g/Ha) of 90% and a pest or weed control at 1000 g/ha ([12]; 1000 g/Ha) of 100%. For the same compound, the pest or weed control at 1000 g/ha ([13]; 1000 g/Ha) was 90%, the pest or weed control at 1000 g/ha (Eleusine indica (ELEIN) [14]; 1000 g/Ha) was 100% and the pest or weed control at 1000 g/ha ([15]; 1000 g/Ha) was 100%. It also gave a pest or weed control at 1000 g/ha ([16]; 1000 g/Ha) of 30%, a pest or weed control at 1000 g/ha (Lolium perenne (LOLPE) [17]; 1000 g/Ha) of 90% and a pest or weed control at 1000 g/ha (Setaria faberi (SETFA) [18]; 1000 g/Ha) of 30%.
